In PubChem BioAssay (NCI):
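Briefly, cells in 96-well plates were exposed to five compound concentrations for 48 h, and endpoints were estimated by linear interpolation. TGI is the concentration that stops growth completely.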

How the values were obtained:
Experiment in all cases: NCI-60 cell line screen, 48 h
[1] = test system: CCRF-CEM leukemia
[2] = test system: A549 NSCLC
[3] = test system: HS 578T breast
[4] = test system: SN12C renal
[5] = test system: NCI-H460 lung
[6] = test system: MDA-MB-231 breast
[7] = test system: COLO 205 colon
[8] = test system: SK-MEL-5 melanoma
[9] = test system: SK-OV-3 ovarian
[10] = test system: SNB-75 CNS
[11] = test system: DU-145 prostate
[12] = test system: KM12 colon
[13] = test system: HCT-15 colon
[14] = test system: HCC-2998 colon
[15] = test system: RPMI-8226 leukemia
[16] = test system: UACC-62 melanoma
[17] = test system: PC-3 prostate
[18] = test system: SW-620 colon
[19] = test system: NCI/ADR-RES ovarian
[20] = test system: RXF 393 renal
[21] = test system: NCI-H23 lung
[22] = test system: TK-10 renal
[23] = test system: BT-549 breast
[24] = test system: MALME-3M melanoma
[25] = test system: HOP-92 NSCLC
[26] = test system: OVCAR-4 ovarian
[27] = test system: MCF7 breast
[28] = test system: EKVX NSCLC
[29] = test system: HOP-62 NSCLC
[30] = test system: LOX IMVI melanoma
[31] = test system: U251 CNS
[32] = test system: UO-31 renal
[33] = test system: SK-MEL-2 melanoma
[34] = test system: HL-60(TB) leukemia
[35] = test system: SK-MEL-28 melanoma
[36] = test system: A498 renal
[37] = test system: OVCAR-3 ovarian
[38] = test system: SF-295 CNS
[39] = test system: SNB-19 CNS
[40] = test system: CAKI-1 renal
[41] = test system: MDA-N
[42] = test system: OVCAR-5 ovarian
[43] = test system: IGROV1 ovarian
[44] = test system: T-47D breast
[45] = test system: K-562 leukemia
[46] = test system: SR leukemia
[47] = test system: 786-0 renal
[48] = test system: SF-539 CNS
[49] = test system: HCT-116 colon
[50] = test system: ACHN renal
[51] = test system: UACC-257 melanoma
[52] = test system: M14 melanoma
[53] = test system: MDA-MB-435
[54] = test system: HT29 colon
[55] = test system: SF-268 CNS
[56] = test system: MOLT-4 leukemia
[57] = test system: OVCAR-8 ovarian
[58] = test system: NCI-H226 lung
[59] = test system: NCI-H522 lung

In the case of `CCN(CC)c1ccc(/C=C/c2ccnc3ccccc23)cc1`, the TGI [1] is reported as greater than 100 µM, the TGI [2] is reported as greater than 100 µM and the TGI [3] is reported as greater than 100 µM. It also gave a TGI [4] greater than 100 µM, a TGI [5] greater than 100 µM and a TGI [6] greater than 100 µM. The TGI [7] was greater than 100 µM, the TGI [8] was greater than 100 µM and the TGI [9] was greater than 100 µM. The TGI [10] was greater than 100 µM, the TGI [11] was greater than 100 µM and the TGI [12] was greater than 100 µM. For the same compound, the TGI [13] was greater than 100 µM, the TGI [14] was greater than 100 µM and the TGI [15] was greater than 100 µM. For the same compound, the TGI [16] was greater than 100 µM, the TGI [17] was greater than 100 µM and the TGI [18] was greater than 100 µM. It also gave a TGI [19] greater than 100 µM, a TGI [20] greater than 100 µM and a TGI [21] greater than 100 µM. For the same compound, the TGI [22] was greater than 100 µM, the TGI [23] was greater than 100 µM and the TGI [24] was greater than 100 µM. It also gave a TGI [25] greater than 100 µM, a TGI [26] greater than 100 µM and a TGI [27] greater than 100 µM. The TGI [28] was greater than 100 µM, the TGI [29] was greater than 100 µM and the TGI [30] was greater than 100 µM. The TGI [31] was greater than 100 µM, the TGI [32] was greater than 100 µM and the TGI [33] was greater than 100 µM. The TGI [34] was greater than 100 µM, the TGI [35] was greater than 100 µM and the TGI [36] was greater than 100 µM. For the same compound, the TGI [37] was greater than 100 µM, the TGI [38] was greater than 100 µM and the TGI [39] was greater than 100 µM. The TGI [40] was greater than 100 µM, the TGI [41] was greater than 100 µM and the TGI [42] was greater than 100 µM. It also gave a TGI [43] greater than 100 µM, a TGI [44] greater than 100 µM and a TGI [45] greater than 100 µM. For the same compound, the TGI [46] was greater than 100 µM, the TGI [47] was greater than 100 µM and the TGI [48] was greater than 100 µM. It also gave a TGI [49] greater than 100 µM, a TGI [50] greater than 100 µM and a TGI [51] greater than 100 µM. For the same compound, the TGI [52] was greater than 100 µM, the TGI [53] was greater than 100 µM and the TGI [54] was greater than 100 µM. The TGI [55] was greater than 100 µM.
For `Clc1ccc(C=NC23CC4CC(CC(C4)C2)C3)c(Cl)c1`, the TGI [1] was greater than 10 µM, the TGI [2] was greater than 10 µM and the TGI [3] was greater than 10 µM. For the same compound, the TGI [4] was greater than 10 µM, the TGI [5] was greater than 10 µM and the TGI [6] was greater than 10 µM. For the same compound, the TGI [7] was greater than 10 µM, the TGI [56] was greater than 10 µM and the TGI [8] was greater than 10 µM. The TGI [9] was greater than 10 µM, the TGI [10] was greater than 10 µM and the TGI [11] was greater than 10 µM. It also gave a TGI [12] greater than 10 µM, a TGI [13] greater than 10 µM and a TGI [14] greater than 10 µM. The TGI [15] was greater than 10 µM, the TGI [16] was greater than 10 µM and the TGI [17] was greater than 10 µM. The TGI [18] was greater than 10 µM, the TGI [19] was greater than 10 µM and the TGI [20] was greater than 10 µM. For the same compound, the TGI [21] was greater than 10 µM, the TGI [22] was greater than 10 µM and the TGI [23] was greater than 10 µM. The TGI [24] was greater than 10 µM, the TGI [25] was greater than 10 µM and the TGI [26] was greater than 10 µM. For the same compound, the TGI [28] was greater than 10 µM, the TGI [57] was greater than 10 µM and the TGI [29] was greater than 10 µM. It also gave a TGI [30] greater than 10 µM, a TGI [31] greater than 10 µM and a TGI [33] greater than 10 µM. The TGI [34] was greater than 10 µM, the TGI [35] was greater than 10 µM and the TGI [36] was greater than 10 µM. The TGI [37] was greater than 10 µM, the TGI [38] was greater than 10 µM and the TGI [39] was greater than 10 µM. The TGI [40] was greater than 10 µM, the TGI [58] was greater than 10 µM and the TGI [41] was greater than 10 µM. The TGI [42] was greater than 10 µM, the TGI [43] was greater than 10 µM and the TGI [44] was greater than 10 µM. For the same compound, the TGI [45] was greater than 10 µM, the TGI [46] was greater than 10 µM and the TGI [47] was greater than 10 µM. It also gave a TGI [48] greater than 10 µM, a TGI [49] greater than 10 µM and a TGI [50] greater than 10 µM. The TGI [51] was greater than 10 µM, the TGI [52] was greater than 10 µM and the TGI [59] was greater than 10 µM. It also gave a TGI [53] greater than 10 µM, a TGI [54] greater than 10 µM and a TGI [55] greater than 10 µM.
`CC1OC(O[C@H]2C3C=CO[C@@H](OC4OC(CO)C(O)C(O)C4O)C3[C@@]3(COC(=O)/C=C/c4ccccc4)O[C@@H]23)C(O)C(O)C1O` (some centres undefined) showed a TGI [1] greater than 100 µM, a TGI [2] greater than 100 µM and a TGI [3] greater than 100 µM. The TGI [4] was greater than 100 µM, the TGI [5] was greater than 100 µM and the TGI [6] was greater than 100 µM. It also gave a TGI [7] greater than 100 µM, a TGI [56] greater than 100 µM and a TGI [8] greater than 100 µM. The TGI [9] was greater than 100 µM, the TGI [10] was greater than 100 µM and the TGI [11] was greater than 100 µM. The TGI [12] was greater than 100 µM, the TGI [13] was greater than 100 µM and the TGI [14] was greater than 100 µM. For the same compound, the TGI [15] was greater than 100 µM, the TGI [16] was greater than 100 µM and the TGI [17] was greater than 100 µM. The TGI [18] was greater than 100 µM, the TGI [19] was greater than 100 µM and the TGI [20] was greater than 100 µM. It also gave a TGI [21] greater than 100 µM, a TGI [22] greater than 100 µM and a TGI [23] greater than 100 µM. The TGI [24] was greater than 100 µM, the TGI [25] was greater than 100 µM and the TGI [26] was greater than 100 µM. It also gave a TGI [27] greater than 100 µM, a TGI [28] greater than 100 µM and a TGI [57] greater than 100 µM. It also gave a TGI [29] greater than 100 µM, a TGI [30] greater than 100 µM and a TGI [31] greater than 100 µM. For the same compound, the TGI [32] was greater than 100 µM, the TGI [33] was greater than 100 µM and the TGI [34] was greater than 100 µM. The TGI [35] was greater than 100 µM, the TGI [36] was greater than 100 µM and the TGI [37] was greater than 100 µM. The TGI [38] was greater than 100 µM, the TGI [39] was greater than 100 µM and the TGI [40] was greater than 100 µM. For the same compound, the TGI [58] was greater than 100 µM, the TGI [41] was greater than 100 µM and the TGI [42] was greater than 100 µM. For the same compound, the TGI [43] was greater than 100 µM, the TGI [44] was greater than 100 µM and the TGI [45] was greater than 100 µM. It also gave a TGI [47] greater than 100 µM, a TGI [49] greater than 100 µM and a TGI [50] greater than 100 µM. For the same compound, the TGI [51] was greater than 100 µM, the TGI [52] was greater than 100 µM and the TGI [59] was greater than 100 µM. It also gave a TGI [53] greater than 100 µM, a TGI [54] greater than 100 µM and a TGI [55] greater than 100 µM.
